Source: paper PMC9977937, “Molecular insights into the catalytic mechanism of plasticizer degradation by a monoalkyl phthalate hydrolase” (Communications Chemistry, 2023)

Legend:
MehpH = target: T1, MehpH (Gordonia sp. P8219, UniProt Q2MHH5); assay: HPLC of MBP and PA at […] nm; assay type: biochemical; details: 1.0 mM MBP, 1.0 µM enzyme, 10% DMSO
T1 construct: synthetic gene in pET30a, His-tagged, E. coli BL21(DE3)
T1 sequence (Q2MHH5 1-311): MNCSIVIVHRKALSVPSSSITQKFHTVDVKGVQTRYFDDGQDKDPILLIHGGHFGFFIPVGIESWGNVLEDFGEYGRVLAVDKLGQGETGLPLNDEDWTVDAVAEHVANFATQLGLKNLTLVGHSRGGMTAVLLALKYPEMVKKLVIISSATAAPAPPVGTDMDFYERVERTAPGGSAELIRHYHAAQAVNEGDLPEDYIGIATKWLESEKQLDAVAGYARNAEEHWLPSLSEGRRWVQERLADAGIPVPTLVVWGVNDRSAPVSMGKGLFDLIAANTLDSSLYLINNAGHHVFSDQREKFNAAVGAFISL

[1] = target: T2, MehpH (crystallization construct) (Gordonia sp. P8219, UniProt Q2MHH5, D259N); assay: X-ray crystallography, […] Å; assay type: binding; details: pH 6.2, 16 °C
T2 construct: N-terminal 23 residues deleted (core 24-152 and 225-311, lid 153-224), His-tagged, pET30a, E. coli BL21(DE3); four molecules per asymmetric unit
T2 sequence (Q2MHH5 entry or part of it D259N): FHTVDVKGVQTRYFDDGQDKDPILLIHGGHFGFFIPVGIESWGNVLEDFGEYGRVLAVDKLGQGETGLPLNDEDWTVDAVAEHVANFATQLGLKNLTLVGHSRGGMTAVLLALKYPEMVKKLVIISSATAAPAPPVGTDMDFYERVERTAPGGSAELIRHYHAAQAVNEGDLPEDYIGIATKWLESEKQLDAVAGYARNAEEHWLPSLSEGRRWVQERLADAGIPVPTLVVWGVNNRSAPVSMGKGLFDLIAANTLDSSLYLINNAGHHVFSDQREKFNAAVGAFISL

Compound: CCCCOC(=O)c1ccccc1C(=O)O [MBP, monobutyl phthalate]
- HPLC of MBP and PA at 254 nm (MehpH): Hydrolytic activities of MehpH and its variants using MBP as substrate

Compound: O=C(O)c1ccccc1C(=O)O [PA, phthalic acid]
- X-ray crystallography, 2.8 Å ([1]; covalent ester with Ser125 (acyl-enzyme intermediate), crystals of the D259N mutant with MBP): The shape of the electron density is consistent with that of PA

Compound: CCCCO [butanol]
- X-ray crystallography, 2.8 Å ([1]; non-covalent, in penetrating tunnel next to active site, one of four molecules, crystals with MBP): we discovered the electron density of butanol in the penetrating tunnel
